This is an account of results in patent publication US3969532A, “1-Aryl-3-(2-hydroxyethyl) thioureas for treating depression” (The Dow Chemical Company, priority 1975, dated 1976).

Usually ED50 stands for the dose at which the effect has come halfway, by size or by number of responders.

This test has as its system reserpine-induced ptosis. Kind of test: Antagonism of reserpine-induced ptosis in mice (antidepressant test). It counts as in vivo. The following applies: for inhibition of reserpine-induced ptosis (in words): comparative trials, dosages of 60 mg/kg (i.p.); for ED50: Mus musculus, 1.25 h.
Where [1] appears, read: mice, compound oral 30 minutes before i.p. reserpine, ptosis noted 45 minutes after reserpine, read-out: ED50 (median effective dose protecting 50% of mice from reserpine-induced ptosis), oral.
Setting [2] is: ip, mice, compound i.p. 30 minutes before i.p. reserpine, ptosis noted 45 minutes after reserpine, read-out: ED50 (median effective dose protecting 50% of mice from reserpine-induced ptosis), i.p.

Where two headings read alike, the source gives them in different places.

Procedure: The antidepressant properties of the compounds employed in the methods of the present invention are determined by measuring their ability to counteract ptosis induced in animals by the intraperitoneal injection of reserpine. […] Forty-five minutes after the administration of reserpine, the presence or absence of ptosis is noted. The percent inhibition of ptosis is noted and the median effective dose (ED50) of each test ingredient which protected 50% of the test mice from reserpine-induced ptosis was calculated.

On to `COc1ccc(NC(=S)NCCO)cc1OC` [3,4-dimethoxy], for which the “inhibition of reserpine-induced ptosis (in words)” value is “did not inhibit reserpine-induced ptosis”.

For `Cc1ccc(CNC(=S)NCCO)c(C)c1` [Compound 1, 1-(2,4-dimethylbenzyl)-3-(2-hydroxyethyl)thiourea], the median effective dose (ED50) runs as follows: under setting [1], 6.8 mg/kg; under setting [2], 11 mg/kg.

Turning to `COc1ccc(NC(=S)NCCO)c(C)c1` [Compound 2, 1-(4-methoxy-2-methylphenyl)-3-(2-hydroxyethyl)thiourea], the 50% effective dose (ED50) is 16.2 mg/kg under setting [1] and 10 mg/kg under setting [2].

Regarding `COc1ccccc1NC(=S)NCCO` [Compound 2-methoxy], the “inhibition of reserpine-induced ptosis (in words)” value is “did not inhibit reserpine-induced ptosis”.

In the case of `COc1ccc(NC(=S)NCCO)c(OC)c1` [Compound 3, 1-(2,4-dimethoxyphenyl)-3-(2-hydroxyethyl)thiourea], the ED50 under setting [2] was 38 mg/kg.

Regarding `CN(C)CCC=C1c2ccccc2COc2ccccc21` [Doxepin], the ED50 reads like this: under setting [1], 27 mg/kg; under setting [2], 27 mg/kg.

With `CN(C)CCCN1c2ccccc2CCc2ccccc21` [Imipramine], where the note is “po, read-out: ED50 (median effective dose protecting 50% of mice from reserpine-induced ptosis), oral”, the 50% effective dose (ED50) is 14 mg/kg.
